Measurements reported in ChEMBL document CHEMBL1201862, “PubChem BioAssay data set” (2004).
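Interpolation was linear, between the two tested concentrations surrounding the appropriate level; five concentrations were tested over 48 hours in 96-well plates. At the GI50, growth is halved.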 Active and inactive are the calls of the source. Cut-off read from the data, not from the text of the source: active = GI50 up to about 1.1 µM and inactive = higher.

Tests used:
Experiment in all cases: NCI anticancer screen, dose series, 48 h
[1] = system: SK-MEL-28
[2] = system: MCF7
[3] = system: OVCAR-4
[4] = system: OVCAR-5
[5] = system: KM12
[6] = system: NCI-H460
[7] = system: MOLT-4
[8] = system: NCI-H23
[9] = system: HOP-62
[10] = system: TK-10
[11] = system: SK-MEL-2
[12] = system: U-251
[13] = system: Malme-3M
[14] = system: A549
[15] = system: EKVX
[16] = system: MDA-MB-435
[17] = system: 786-0
[18] = system: T47D
[19] = system: CAKI-1
[20] = system: LOX IMVI

Measured: GI50

CCOC(=O)C1=C(N)N(c2ccccc2)/C(=C2\SC(=S)N(c3ccc(C)cc3)C2=O)S1
inactive: [1] 23.4 µM | [2] 87.5 µM | [3] 18 µM | [4] 61.9 µM | [5] > 100 µM | [6] 75.2 µM | [7] 60.8 µM | [8] 47.4 µM | [9] 22.2 µM | [10] 48.4 µM | [11] 73.3 µM | [12] 29.6 µM | [13] 51.1 µM | [14] 52.1 µM | [15] > 100 µM | [16] > 100 µM | [17] 29.3 µM

CCOC(=O)c1c(C)cc(=O)n2c1[nH]c1ccccc12
inactive: [1] > 100 µM | [18] > 100 µM | [2] > 100 µM | [4] > 100 µM | [6] 14.1 µM | [7] > 100 µM | [8] > 100 µM | [19] 17.2 µM | [20] > 100 µM | [10] 99.3 µM | [11] > 100 µM | [12] 34.6 µM | [13] > 100 µM | [14] 82.2 µM | [15] > 100 µM | [17] 63.5 µM

CCOC(=O)CCC(NC(=O)OCc1ccccc1)C(=O)NC(CCC(=O)OCC)C(=O)NC(CCC(=O)OCC)C(=O)NNC(=O)OC(C)(C)C (stereo unspecified)
inactive: [1] > 100 µM | [2] > 100 µM | [4] > 100 µM | [5] > 10 µM | [6] > 100 µM | [7] > 100 µM | [8] > 100 µM | [9] > 100 µM | [10] > 100 µM | [11] > 100 µM | [12] > 100 µM | [13] > 100 µM | [14] > 100 µM | [15] > 100 µM | [17] > 100 µM

COc1cc(C(C)c2cc3c(cc2OCCN)OCO3)cc(OC)c1OC (stereo unspecified)
inactive: [1] 28.2 µM | [3] > 100 µM | [4] 46.6 µM | [5] 28.4 µM | [6] > 100 µM | [7] 10.9 µM | [8] 31.8 µM | [19] > 100 µM | [9] > 100 µM | [20] > 100 µM | [10] 73.5 µM | [11] 64.3 µM | [12] 42.5 µM | [13] > 100 µM | [14] > 100 µM | [15] 36.2 µM | [17] > 100 µM

O=c1c2cc([N+](=O)[O-])ccc2n2n1Cc1ccccc1CC2
inactive: [1] > 100 µM | [2] > 100 µM | [3] > 100 µM | [4] > 100 µM | [5] > 100 µM | [6] > 100 µM | [7] > 100 µM | [8] > 100 µM | [19] > 100 µM | [9] > 100 µM | [20] > 100 µM | [10] 38.1 µM | [11] > 100 µM | [12] > 100 µM | [13] > 100 µM | [14] > 100 µM | [15] 2.11 µM | [16] > 100 µM | [17] > 100 µM

N=c1c2ccccc2sc2nc3ccccc3n12
inactive: [1] > 100 µM | [3] 33.9 µM | [4] > 100 µM | [5] > 100 µM | [6] > 100 µM | [7] > 100 µM | [8] > 100 µM | [19] 48.6 µM | [9] > 100 µM | [20] > 100 µM | [10] > 100 µM | [11] > 100 µM | [12] > 100 µM | [13] > 100 µM | [14] > 100 µM | [15] 86.1 µM | [17] 97.5 µM

CN(CCc1ccccn1)c1nc(=[N+](C)C)ss1
inactive: [1] > 100 µM | [3] > 100 µM | [4] > 100 µM | [5] 28.1 µM | [6] 46.3 µM | [7] > 100 µM | [8] > 100 µM | [19] > 100 µM | [9] > 100 µM | [20] > 100 µM | [10] > 100 µM | [11] > 100 µM | [12] > 100 µM | [13] > 100 µM | [14] 35.3 µM | [15] > 100 µM | [17] > 100 µM

CC1=C(C(=O)NNC(=O)Cc2ccccc2)CC(C(=O)NNC(=O)Cc2ccccc2)=C(C)N1
inactive: [1] > 100 µM | [18] 54.8 µM | [2] > 100 µM | [3] > 100 µM | [4] > 100 µM | [5] > 100 µM | [6] > 100 µM | [8] > 100 µM | [19] > 100 µM | [9] > 100 µM | [20] 80 µM | [10] > 100 µM | [11] > 100 µM | [12] > 100 µM | [14] > 100 µM | [15] > 100 µM | [16] 89.1 µM | [17] > 100 µM

Nc1ccc2n[se]nc2c1
inactive: [1] > 100 µM | [3] > 100 µM | [4] > 100 µM | [5] 48.1 µM | [6] > 100 µM | [7] > 100 µM | [8] > 100 µM | [19] > 100 µM | [9] > 100 µM | [20] 29.6 µM | [10] 23.8 µM | [11] 79.1 µM | [12] > 100 µM | [13] > 100 µM | [14] > 100 µM | [15] > 100 µM | [17] > 100 µM

CC/N=C(/C#N)NCC
inactive: [1] > 100 µM | [3] > 100 µM | [4] > 100 µM | [5] > 100 µM | [6] > 100 µM | [7] > 100 µM | [8] > 100 µM | [19] > 100 µM | [9] > 100 µM | [20] > 100 µM | [10] > 100 µM | [11] > 100 µM | [12] 96.4 µM | [13] > 100 µM | [14] > 100 µM | [15] > 100 µM | [17] 63 µM

NCC(=O)Nc1ccccc1
inactive: [1] > 100 µM | [18] > 100 µM | [3] > 100 µM | [4] > 100 µM | [5] > 100 µM | [6] > 100 µM | [7] > 100 µM | [8] > 100 µM | [19] > 100 µM | [9] > 100 µM | [20] > 100 µM | [10] > 100 µM | [11] 87.7 µM | [12] > 100 µM | [13] > 100 µM | [14] > 100 µM | [15] > 100 µM | [16] > 100 µM | [17] > 100 µM

CCCCCCCCCCCC(=O)CC(=O)c1c(O)cccc1O
inactive: [1] 21.4 µM | [3] 17.3 µM | [4] 15.5 µM | [5] 17.5 µM | [6] 19 µM | [7] 19.7 µM | [8] 19.6 µM | [19] > 10 µM | [9] 23.7 µM | [20] 17.4 µM | [10] 24.9 µM | [11] 14.1 µM | [12] 17.7 µM | [13] 15.5 µM | [14] 17.9 µM | [15] 17.8 µM | [17] 23.3 µM
